Converted amounts (≈) assume the structure as drawn.

The thermodynamic solubility is solubility found after equilibrating the solid with the medium.

Series [1] has as its target T1, human recombinant GSK3β (N-terminal 6His-tagged recombinant enzyme with an H350L mutation) (Homo sapiens, UniProt P49841).
T1 construct: 6His (N); purchased Millipore (Billerica, Mass., USA)
Description: GSK-3 assay (Z'-LYTE FRET enzymatic activity). As to conditions: 2 nM enzyme, 12.5 μM ATP, 2 μM Ser/Thr 9 peptide, 60 min at room temperature; concentration in M units; read-out: GSK-3 inhibition pEC50 average (converted). Type of series: biochemical. How it is done:
The enzymatic activity of GSK3β was determined with a commercial system based on the Z'-LYTE® technology, available from Life Technologies (Carlsbad, Calif., USA), using human recombinant GSK3β (N-terminal 6His-tagged recombinant enzyme with an H350L mutation) from Millipore (Billerica, Mass., USA) as the enzyme source. This technology utilizes the fluorescence resonance energy transfer (“FRET”) process between fluorescein and coumarin. The assay principle is based on the differential sensitivity of phosphorylated and non-phosphorylated peptide to proteolytic cleavage, which precludes the energy transfer process between the two fluorophores attached to both sides of the cleavage site. […] The assay is performed in 384-well black plates, in a final volume of 10 μl, with 2 nM enzyme concentration in 50 mM Hepes pH 7.5, 50 mM MgCl2, 5 mM EGTA and 0.05% Brij-35, using 12.5 μM ATP and 2 μM substrate peptide. The latter is a synthetic peptide, provided by Invitrogen under the commercial name “Ser/Thr 9 peptide”, and it is based upon the sequence of a GSK3β substrate protein (glycogen synthase I) containing Ser-641. The peptide is labeled at both ends with fluorescein and coumarin. The assay is carried out in the presence of different concentrations of the tested compound, at a final 1% (v/v) DMSO concentration. After a 60 min incubation at room temperature, 5 μl of a commercial protease solution (sold by the same vendor in the assay kit) is added and a subsequent 1 h incubation at room temperature is performed, before adding 5 μl of a suitable “stop solution”, also provided by the vendor in the kit. After that, fluorescence intensity is recorded, monitoring emission at both 445 and 520 nm, upon excitation at 400 nm. An emission ratio is finally calculated, using the quotient among the emission at 445 nm divided by that at 520 nm.
The emission ratio of each tested sample is normalized to that of the control wells, so that for every compound concentration the percentage of inhibition is calculated by using the following equation:
[formula] where “S” is the emission from the wells with the tested sample, “E” is the average emission from control wells with full enzyme activity and “B” is the average emission from wells with full enzyme inhibition. Inhibition values obtained for every compound concentration are finally used to calculate the pEC50 of the tested compound, this parameter being the negative value of the logarithm of the compound concentration, in M units, causing 50% of its maximum effect (i.e., the higher the pEC50 value the higher the potency of the compound). For that purpose the data were fitted to the following equation using the nonlinear regression function of GraphPad™ Prism 5.0 (GraphPad Software Inc.): […]

Series [2] can be described thus: Thermodynamic solubility of TDZDs. Type of series: physicochemical. As to conditions: phosphate buffered saline, aqueous buffer, thermodynamic from solid; aqueous 0.01 M PBS pH 7.4, 2 mg/mL samples, 24 hours mixing, LC-UV. As for the experimental part: Thermodynamic solubility was determined in duplicate from samples with a compound concentration of 2 mg/mL in aqueous 0.01 M phosphate buffered saline (PBS) pH 7.4 with a mixing period of 24 hours. Analysis and quantification was performed by LC-UV. Calibration lines were prepared for each compound from samples at of 1.0, 0.1, 0.01 and 0.001 mg/mL concentration in acetonitrile.

T1 sequence (P49841 whole entry, stated change not applied): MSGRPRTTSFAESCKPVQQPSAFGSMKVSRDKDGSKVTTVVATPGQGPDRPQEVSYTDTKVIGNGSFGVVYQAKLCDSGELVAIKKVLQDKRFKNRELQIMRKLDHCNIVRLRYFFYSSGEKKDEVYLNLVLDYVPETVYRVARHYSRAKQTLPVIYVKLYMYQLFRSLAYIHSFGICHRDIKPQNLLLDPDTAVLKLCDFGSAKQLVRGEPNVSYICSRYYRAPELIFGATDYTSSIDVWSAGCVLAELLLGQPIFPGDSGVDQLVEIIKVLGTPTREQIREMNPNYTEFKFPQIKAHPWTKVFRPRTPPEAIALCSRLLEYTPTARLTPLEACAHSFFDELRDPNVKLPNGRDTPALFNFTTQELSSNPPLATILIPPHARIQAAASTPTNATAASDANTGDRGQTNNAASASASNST

Take `CCOC(=O)Cn1c(=O)sn(C(Cc2ccccc2)C(=O)OCC)c1=O` (stereo not drawn) [Compound 3]: in series [1], the EC50 was 25.1 nM. This compound also returned a solubility (thermodynamic) at 24 h in series [2] of 22 µg/mL (≈ 57.8 µM).
With `O=c1sn(-c2cccc3ccccc23)c(=O)n1Cc1ccccc1` [Compound 5, reference compound], the thermodynamic solubility at 24 h in series [2] was at most 1 µg/mL.
On to `O=c1sn(Cc2ccccc2)c(=O)n1CCO` [Compound 4, 2-benzyl-4-(2-hydroxy-ethyl)-[1,2,4]thiadiazolidine-3,5-dione], for which the EC50 in series [1] is 1580 nM. Also, the solubility (thermodynamic) at 24 h in series [2] was 1840 µg/mL (≈ 7300 µM).
For the compound `O=c1sn(Cc2ccccc2)c(=O)n1CC1CCCO1` (stereo not drawn) [Compound 2, 2-benzyl-4-(tetrahydro-furan-2-ylmethyl)-[1,2,4]thiadiazolidine-3,5-dione], in series [1], the EC50 was 2000 nM. Moreover, in series [2], the thermodynamic solubility at 24 h stood at 1030 µg/mL (≈ 3520 µM).
Regarding `CCn1c(=O)sn(Cc2ccccc2)c1=O` [Compound 1, 2-benzyl-4-ethyl-[1,2,4]thiadiazolidine-3,5-dione], the EC50 in series [1] is 631 nM. The compound also displayed a solubility (thermodynamic) at 24 h in series [2] of 617 µg/mL (≈ 2610 µM).

The record behind these values is patent US9469618B2, “Thiadiazolidinediones as GSK-3 inhibitors” (ASD THERAPEUTICS PARTNERS LLC, priority 2012, dated 2016).
